Source: patent publication US4018775A, “5-Phenyl-thiazolidin-4-one derivatives” (Warner-Lambert Company, priority 1974, dated 1977)
Where two headings read alike, the source gives them in different places.

Legend:
Type in all cases: in vivo
[1] = test system: mice with liver damage caused by α-amanitine; test: Anti-hepatotoxic action: survival rate of mice with liver damage caused by α-amanitine; settings: for effect on survival rate of α-amanitine liver damaged mice (in words): in comparison with untreated control animals
Protocol: As a further animal experimental test model for the testing of the anti-hepatotoxic actions of pharmaceuticals, use is made of the liver damage in mice produced by α-amanitine.
Since it is extremely difficult to obtain α-amanitine in sufficient amounts, only a small amount of α-amanitine was available for these experiments so that the experiments could only be carried out to a very limited extent.
The influence of Compounds Nos. 1 and 4 was determined on the survival rate of mice with liver damage brought about by α-amanitine. As standard substance, there was again used silymarin which was tested by us in the dosage found to be effective by Hahn et al. (Arzneimittel Forschung, 18, 697/1968) as an anti-hepatotoxic in the same experimental procedure.
Each experimental group consisted of 25 animals. The test substances were administered daily over a period of 6 days, administration being intragastrally in a tragacanth mucilage (0.2 ml./10 g. body weight), using a stomach probe.
The intraperitoneal administration of, in each case, 0.3 mg./kg. α-amanitine took place in all experimental groups on the second day of the experiment. The dosage of α-amanitine was so chosen that the mortality rate of the untreated animals remained below 100%. The survival rate of the animals of all experimental groups was monitored daily for a total period of 14 days. The statistical comparison of the survival rate took place according to the Vierfelder […]. The comparative values obtained are set out in the following Table III: […]

[2] = Acute toxicity in the 7 day test on mice; settings: mouse, in vivo, po; male NMRI mice, intragastral (i.g.), 7 days observation
Protocol: (§1) The acute toxicity of the thiazolidones according to the present invention was investigated on male mice (NMRI) with a body weight of 21-26 g. Before commencement of the experiment, the animals fasted for 24 hours but with water available ad libitum. There were 4 mice in each dosage group. The dosage was increased by a factor of 2. The test compounds were suspended in a 1% tragacanth mucilage and administered intragastrally by, means of a stomach probe. The amount of liquid administered was 0.2 ml./10 g. body weight. […] Silymarin was used as standard substance. The LD50 values determined are set out in the following Table I: […]

male mice (NMRI) = test: Acute toxicity in the 7 day test on mice; settings: intragastral (i.g.), 7 days observation
Protocol: as §1

[3] = 2 × 250 mg/kg/day i.g., untreated 52%, 14 days

## CCOC(=O)C=C1SC(c2ccccc2)(N2CCCCC2)C(=O)N1C (stereo not drawn) [Compound 1, ethyl 3-methyl-5-phenyl-5-N-piperidino-4-oxo-Δ^2,^α -thiazolidine-acetate]
[1]; [3]
  survival rate of α-amanitine liver damaged animals, treated: 92%
[1]
  effect on survival rate of α-amanitine liver damaged mice (in words): clearly increases the survival rate
[2]
  LD50 at 168 h: > 1600 mg/kg

## CCOC(=O)C=C1SC(c2ccccc2)(N2CCCC2)C(=O)N1C (stereo not drawn) [Compound 2, ethyl 3-methyl-5-phenyl-5-N-pyrrolidino-4-oxo-Δ^2,^α -thiazolidine-acetate]
[2]
  LD50 at 168 h: > 1600 mg/kg

## CCOC(=O)C=C1SC(CC)(c2ccccc2)C(=O)N1C (stereo not drawn) [Compound 3, ethyl 3-methyl-5-ethyl-5-phenyl-4-oxo-Δ^2,^α -thiazolidine-acetate]
[2]
  LD50 at 168 h: ~1600 mg/kg
Male mice (NMRI)
  LD50: about 1600 mg./kg.

## CCOC(=O)C=C1SC(c2ccccc2)(N2CCCCC2)C(=O)N1CC (stereo not drawn) [Compound 4, Ethyl 3-ethyl-5-phenyl-5-N-piperidino-4-oxo-Δ^2,^α -thiazolidine-acetate]
[1]
  survival rate of α-amanitine liver damaged animals, treated: 100%
  effect on survival rate of α-amanitine liver damaged mice (in words): statistically highly significant
[1]; [3]
  survival rate of α-amanitine liver damaged animals, treated: 100%
[2]
  LD50 at 168 h: > 1600 mg/kg

## CCOC(=O)C=C1SC(c2ccccc2)(N(C)CCO)C(=O)N1CC (stereo not drawn) [Compound 5, Ethyl 3-ethyl-5-phenyl-5-(methyl-β-hydroxyethylamino)-4-oxo-Δ^2,^α -thiazolidine-acetate]
[2]
  LD50 at 168 h: > 1600 mg/kg
